What was measured:
[1] = test system: E. coli ESBL4 expressing CTX-M-15; experiment: broth microdilution MIC, E. coli CTX-M-15; format: cell-based; conditions: for MIC of exemplary compounds in presence of fixed β-lactams, E. coli ESBL4 CTX-M-15: Fixed CAZ (ceftazidime) 4 μg/mL
Source text: (§1) To determine the ability of test compounds to potentiate the inhibition of the growth of bacterial strains that produce beta-lactamase enzymes, classic cell based broth microdilution MIC assays were employed. Six bacteria strains producing beta-lactamase enzymes were used: E. coli expressing the Class A Extended Spectrum Beta-Lactamase (ESBL) CTX-M-15, E. cloacae expressing the Class C P99, K. pneumoniae expressing the Class A carbapenemase KPC-3, P. aeruginosa expressing the Class B carbapenemase VIM-2, K pneumoniae expressing the class A carbapenemase KPC-2 and the class B carbapenemase VIM-4, and S. aureus producing the Class A penicillinase PC-1. The assay was conducted in Cation Adjusted Mueller Hinton Broth (CAMHB, BD #212322, BD Diagnostic Systems, Sparks, Md.). Bacteria strains were grown for 3-5 hours in CAMBH broth. Test compounds were added to a microtiter plate in 2-fold serial dilutions in CAMHB in a final concentration range of 32 μg/mL to 0.25 μg/ml. An overlay of CAMHB containing a Beta-lactam was added to the compounds at a final static concentration of 4 μg/ml. […] In addition to the titration of test compounds the MICs of a panel of control beta-lactams is also tested to ensure the strains are behaving consistently from test to test. Once the test compound and antibiotics are added the plates can be inoculated according to CLSI broth microdilution method. After inoculation the plates are incubated for 16-20 hours at 37° C., then the Minimal Inhibitory Concentration (MIC) of the test compound is determined visually.
(§2) Using the methodology described above, examples of the current invention were evaluated for their ability to inhibit the growth of β-lactamase-producing bacteria in the presence of a β-lactam antibiotic.
(§3) Representative results are shown in Table 4 where A represents an MIC of the fixed β-lactam antibiotic in the presence of >32 µg/mL of a β-lactamase inhibitor of exemplary compounds, B represents the MIC in the presence of between 8 and 32 µg/mL of a β-lactamase inhibitor of exemplary compounds, and C represents the MIC in the presence of ≤4 µg/mL of a β-lactamase inhibitor of exemplary compounds. NT=Not Tested.

[2] = test system: E. cloacae 144200 expressing Class C P99 AmpC; experiment: broth microdilution MIC, E. cloacae P99; format: cell-based; conditions: for MIC of exemplary compounds in presence of fixed β-lactams, E. cl. 144200 p99 AmpC: Fixed CAZ (ceftazidime) 4 μg/mL
Source text: as §1, §2, §3

[3] = test system: K. pneumoniae A-1797 expressing KPC-2 and VIM-4; experiment: broth microdilution MIC, K. pneumoniae KPC-2 and VIM-4; format: cell-based; conditions: Fixed Mero (meropenem) 4 μg/mL
Source text: as §1, §2, §3

[4] = test system: K. pneumoniae 156319 expressing KPC-3; experiment: broth microdilution MIC, K. pneumoniae KPC-3; format: cell-based; conditions: Fixed Mero (meropenem) 4 μg/mL
Source text: as §1, §2, §3

[5] = molecular target: T1, KPC-2 β-lactamase (Klebsiella pneumoniae, UniProt Q9F663); experiment: β-lactamase enzyme inhibition, KPC-2; format: biochemical; conditions: imipenem substrate, 300 nm; 15 min at 37° C. preincubation; read-out: IC50 KPC-2 (Class A)
T1 construct: made in house; host or cells: E. coli BL21(DE3)
Method: (§4) For SHV-5, Kpc-2, p99AmpC and OXA-1 β-lactamases, E. coli BL21(DE3) bacterial cells carrying expression plasmids (expressed as native untagged proteins) for the individual β-lactamases were grown in 1 L of Superbroth (Teknova Inc. Hollister, Calif.) supplemented with 100 μg/ml kanamycin selection and 1×5052 (0.5% glycerol, 0.05% glucose and 0.2% α-lactose) at 35° C. for 18-20 hours. Cells were harvested by centrifugation (4,000×g, 4° C., 20 min), resuspended in 50 ml of 10 mM HEPES pH 7.5 ( 1/20 of the initial volume). The cells were lysed by sonication (5 pulses of 45 seconds) at 45 W on ice. The lysates were clarified by centrifugation at 10,000×g for 40 minutes at 4° C. Samples were diluted 5-fold in 50 mM sodium acetate pH 5.0, stored overnight at 4° C., after which they were centrifuged at 10,000×g for 30 minutes to clarify, and filtered through 0.45 μm filters. The samples were loaded onto a 5 ml Capto S sepharose cation exchange column (GE Healthcare) pre-equilibrated with 50 mM sodium acetate pH 5.0. The column was washed with 5 column volumes of 50 mM sodium acetate pH 5.0 to wash out unbound protein and a linear gradient of NaCl (0 to 500 mM) was used to elute the protein (over 16 CV) from the column. Fractions were assayed for […] activity using Centa (Calbiochem, Gibbstown, N.J.) or Nitrocefin (EMD Millipore chemicals, Darmstadt, Germany) as a reporter β-lactamase substrate for activity in the isolated fractions. Active fractions were pooled, concentrated and further purified by gel filtration chromatography on a Superdex 75 prep grade gel filtration column (GE Healthcare, Piscataway, N.J.) pre-equilibrated in 50 mM Hepes pH 7.5, 150 mM NaCl. Active fractions were pooled, concentrated, and quantitated by BCA protein determination (Thermo Scientific, Rockford, Ill.), dialyzed into PBS and frozen at −80° C. in 20% glycerol until use.
(§5) An equal volume of diluted enzyme stock was added, and the plates were incubated at 37° C. for 15 min. Nitrocefin was used as substrate for p99 AmpC, VIM-2 and OXA-1 and dispensed into each well at a final concentration of 100 μM. Absorbance at 486 nm was immediately monitored for 10 min using a Biotek Powerwave XS2 microplate spectrophotometer using the GEN5 software package (Biotek Instruments, Winooski Vt.). In an analogous fashion, imipenem was used as substrate for KPC-2 and Cefotaxime was used for SHV-5, while changes in absorbance upon hydrolysis of the β-lactam ring were monitored at 300 nm and 260 nm respectively in UV-transparent 96-well microtiter assay plates. Maximum rates of hydrolysis were compared to those in control wells (without inhibitors), and percentages of enzyme inhibition were calculated for each concentration of inhibitor. The concentration of inhibitor needed to reduce the initial rate of hydrolysis of substrate by 50% (IC50) was calculated as the residual activity of β-lactamase at 486 nm using GraFit version 7 kinetics software package (Erithacus Software, Surrey, UK).
(§6) Using the methodology described above, examples of the current invention were evaluated for their ability to inhibit β-lactamase enzymes from all four Ambler classifications (A through D). […] NT=Not tested.

[6] = molecular target: T2, SHV-5 β-lactamase (Klebsiella pneumoniae, UniProt P0A3M1); experiment: β-lactamase enzyme inhibition, SHV-5; format: biochemical
T2 construct: made in house; host or cells: E. coli BL21(DE3)
Method: as §4, §5, §6

[7] = molecular target: T3, p99 AmpC β-lactamase (Enterobacter cloacae, UniProt P05364); experiment: β-lactamase enzyme inhibition, p99 AmpC; format: biochemical
T3 construct: made in house; host or cells: E. coli BL21(DE3)
Method: as §4, §5
Using the methodology described above, examples of the current invention were evaluated for their ability to inhibit β-lactamase enzymes from all four Ambler classifications (A through D).

[8] = molecular target: T4, VIM-2 metallo β-lactamase (Pseudomonas aeruginosa, UniProt Q9K2N0); experiment: β-lactamase enzyme inhibition, VIM-2; format: biochemical; conditions: Nitrocefin 100 μM, 486 nm; 15 min at 37° C. preincubation; read-out: IC50 VIM-2 (Class B)
T4 construct: made in house; host or cells: E. coli BL21(DE3)
Method: For VIM-2 metallo β-lactamase, the procedure was identical with the following exceptions, first the protein was not pH adjusted to pH 5 with 50 mM sodium acetate. Second, the chromatography step was changed to a 5 ml Q sepharose anion exchange column pre-equilibrated with 50 mM Hepes pH 7.5, and elution of the protein was achieved by a linear gradient of NaCl (0-600 mM). Finally, the VIM-2 purification required a second run (3rd step) on the Q sepharose anion exchange column to achieve acceptable purity (>90%).
as §5, §6

T3 sequence (P05364 21-381): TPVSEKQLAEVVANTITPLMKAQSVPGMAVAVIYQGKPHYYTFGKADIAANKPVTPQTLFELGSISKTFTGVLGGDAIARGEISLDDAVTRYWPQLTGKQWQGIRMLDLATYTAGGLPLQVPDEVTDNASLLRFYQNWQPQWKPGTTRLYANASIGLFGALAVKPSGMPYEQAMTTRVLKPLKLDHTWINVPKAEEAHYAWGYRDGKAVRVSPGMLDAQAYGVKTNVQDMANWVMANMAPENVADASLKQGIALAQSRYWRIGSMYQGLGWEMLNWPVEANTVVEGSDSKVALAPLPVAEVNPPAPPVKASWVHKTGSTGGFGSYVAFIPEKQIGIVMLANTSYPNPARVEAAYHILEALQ
T1 sequence (Q9F663 25-293, looked up): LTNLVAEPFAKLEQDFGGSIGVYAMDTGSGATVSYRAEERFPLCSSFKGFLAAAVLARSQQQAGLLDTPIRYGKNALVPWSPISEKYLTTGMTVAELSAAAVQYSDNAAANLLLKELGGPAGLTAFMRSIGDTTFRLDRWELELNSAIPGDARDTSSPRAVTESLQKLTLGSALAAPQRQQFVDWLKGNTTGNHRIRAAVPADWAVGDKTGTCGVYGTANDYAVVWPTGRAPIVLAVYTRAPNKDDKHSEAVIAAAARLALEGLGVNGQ
T2 sequence (P0A3M1 22-286): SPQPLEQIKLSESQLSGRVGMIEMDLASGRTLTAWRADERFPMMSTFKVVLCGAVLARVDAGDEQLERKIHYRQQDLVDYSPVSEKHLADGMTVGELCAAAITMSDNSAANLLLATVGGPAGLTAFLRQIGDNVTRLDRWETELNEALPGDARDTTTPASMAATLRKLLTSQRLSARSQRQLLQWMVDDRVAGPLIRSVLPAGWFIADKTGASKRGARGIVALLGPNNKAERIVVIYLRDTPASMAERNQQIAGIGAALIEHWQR

SMILES: CC(C)(O/N=C(\C(=O)N[C@@H]1C(=O)N2C(C(=O)[O-])=C(C[n+]3ccccc3)CS[C@H]12)c1csc(N)n1)C(=O)O [Ceftazidime, ceftazidime, reference compound]
- MIC ([1]; Escherichia coli, read-out: MIC alone): > 128 µg/mL
- MIC alone ([2]; partner antibiotic alone, E. cloacae expressing Class C P99): 128 µg/mL

SMILES: NS(=O)(=O)CCCC(=O)N[C@H]1Cc2cccc(C(=O)O)c2OB1O [Example 53, (R)-2-Hydroxy-3-(4-sulfamoyl-butyrylamino)-3,4-dihydro-2H-benzo[e][1,2]oxaborinine-8-carboxylic acid]
- MIC of exemplary compounds in presence of fixed β-lactams, K.P. A-1797 KPC-2 VIM-4 [3]: B (B represents the MIC in the presence of between 8 and 32 g/mL of a β-lactamase inhibitor)
- MIC of exemplary compounds in presence of fixed β-lactams, K.P. 156319 KPC-3 [4]: C (C represents the MIC in the presence of ≤4 g/mL of a β-lactamase inhibitor)
- IC50 [5]: < 100 nM
- IC50 [6]: < 100 nM
- MIC of exemplary compounds in presence of fixed β-lactams, E. coli ESBL4 CTX-M-15 [1]: C (C represents the MIC in the presence of ≤4 g/mL of a β-lactamase inhibitor)
- IC50 [7]: < 100 nM
- IC50 [8]: 10 to 100 µM
- MIC of exemplary compounds in presence of fixed β-lactams, E. cl. 144200 p99 AmpC [2]: C (C represents the MIC in the presence of ≤4 g/mL of a β-lactamase inhibitor)

SMILES: CS(=O)(=O)NCCCC(=O)N[C@H]1Cc2cccc(C(=O)O)c2OB1O [Example 57, (R)-2-Hydroxy-3-(4-methanesulfonylamino-butyrylamino)-3,4-dihydro-2H-benzo[e][1,2]oxaborinine-8-carboxylic acid]
- MIC of exemplary compounds in presence of fixed β-lactams, K.P. A-1797 KPC-2 VIM-4 [3]: B (B represents the MIC in the presence of between 8 and 32 g/mL of a β-lactamase inhibitor)
- MIC of exemplary compounds in presence of fixed β-lactams, K.P. 156319 KPC-3 [4]: C (C represents the MIC in the presence of ≤4 g/mL of a β-lactamase inhibitor)
- IC50 [5]: < 100 nM
- IC50 [6]: < 100 nM
- MIC of exemplary compounds in presence of fixed β-lactams, E. coli ESBL4 CTX-M-15 [1]: C (C represents the MIC in the presence of ≤4 g/mL of a β-lactamase inhibitor)
- IC50 [7]: < 100 nM
- IC50 [8]: 1 to 10 µM

SMILES: CNS(=O)(=O)CCCC(=O)N[C@H]1Cc2cccc(C(=O)O)c2OB1O [Example 58, (R)-2-Hydroxy-3-(4-methylsulfamoyl-butyrylamino)-3,4-dihydro-2H-benzo[e][1,2]oxaborinine-8-carboxylicacid]
- MIC of exemplary compounds in presence of fixed β-lactams, K.P. A-1797 KPC-2 VIM-4 [3]: B (B represents the MIC in the presence of between 8 and 32 g/mL of a β-lactamase inhibitor)
- MIC of exemplary compounds in presence of fixed β-lactams, K.P. 156319 KPC-3 [4]: C (C represents the MIC in the presence of ≤4 g/mL of a β-lactamase inhibitor)
- IC50 [5]: < 100 nM
- IC50 [6]: < 100 nM
- MIC of exemplary compounds in presence of fixed β-lactams, E. coli ESBL4 CTX-M-15 [1]: C (C represents the MIC in the presence of ≤4 g/mL of a β-lactamase inhibitor)
- IC50 [7]: < 100 nM
- IC50 [8]: 1 to 10 µM

SMILES: CS(=O)(=O)CCCC(=O)N[C@H]1Cc2cccc(C(=O)O)c2OB1O [Example 59, (R)-2-Hydroxy-3-(4-methanesulfonyl-butyrylamino)-3,4-dihydro-2H-benzo[e][1,2]oxaborinine-8-carboxylic acid]
- MIC of exemplary compounds in presence of fixed β-lactams, K.P. A-1797 KPC-2 VIM-4 [3]: B (B represents the MIC in the presence of between 8 and 32 g/mL of a β-lactamase inhibitor)
- MIC of exemplary compounds in presence of fixed β-lactams, K.P. 156319 KPC-3 [4]: C (C represents the MIC in the presence of ≤4 g/mL of a β-lactamase inhibitor)
- IC50 [5]: < 100 nM
- IC50 [6]: < 100 nM
- MIC of exemplary compounds in presence of fixed β-lactams, E. coli ESBL4 CTX-M-15 [1]: C (C represents the MIC in the presence of ≤4 g/mL of a β-lactamase inhibitor)
- IC50 [7]: < 100 nM
- IC50 [8]: 1 to 10 µM

SMILES: CC(O)CCC(=O)N[C@H]1Cc2cccc(C(=O)O)c2OB1O (stereo partly drawn) [Example 63, (R)-2-Hydroxy-3-(4-hydroxy-pentanoylamino)-3,4-dihydro-2H-benzo[e][1,2]oxaborinine-8-carboxylic acid]
- MIC of exemplary compounds in presence of fixed β-lactams, K.P. A-1797 KPC-2 VIM-4 [3]: B (B represents the MIC in the presence of between 8 and 32 g/mL of a β-lactamase inhibitor)
- MIC of exemplary compounds in presence of fixed β-lactams, K.P. 156319 KPC-3 [4]: C (C represents the MIC in the presence of ≤4 g/mL of a β-lactamase inhibitor)
- MIC of exemplary compounds in presence of fixed β-lactams, E. coli ESBL4 CTX-M-15 [1]: C (C represents the MIC in the presence of ≤4 g/mL of a β-lactamase inhibitor)
- MIC of exemplary compounds in presence of fixed β-lactams, E. cl. 144200 p99 AmpC [2]: C (C represents the MIC in the presence of ≤4 g/mL of a β-lactamase inhibitor)

SMILES: O=C(Cc1ccncc1)N[C@H]1Cc2cccc(C(=O)O)c2OB1O [Example 65, (R)-2-Hydroxy-3-(2-pyridin-4-yl-acetylamino)-3,4-dihydro-2H-benzo[e][1,2]oxaborinine-8-carboxylic acid]
- MIC of exemplary compounds in presence of fixed β-lactams, K.P. A-1797 KPC-2 VIM-4 [3]: C (C represents the MIC in the presence of ≤4 g/mL of a β-lactamase inhibitor)
- MIC of exemplary compounds in presence of fixed β-lactams, K.P. 156319 KPC-3 [4]: C (C represents the MIC in the presence of ≤4 g/mL of a β-lactamase inhibitor)
- IC50 [5]: < 100 nM
- IC50 [6]: < 100 nM
- MIC of exemplary compounds in presence of fixed β-lactams, E. coli ESBL4 CTX-M-15 [1]: C (C represents the MIC in the presence of ≤4 g/mL of a β-lactamase inhibitor)
- IC50 [7]: < 100 nM
- MIC of exemplary compounds in presence of fixed β-lactams, E. cl. 144200 p99 AmpC [2]: C (C represents the MIC in the presence of ≤4 g/mL of a β-lactamase inhibitor)

Source: patent US11008346B2, “Beta-lactamase inhibitors” (priority 2014, dated 2021)
